Consider 2 compounds from patent US20140275094A1, “METHOD FOR TREATING PULMONARY ARTERIAL HYPERTENSION IN A PATIENT NOT HAVING IDIOPATHIC PULMONARY FIBROSIS” (GILEAD SCIENCES, INC., priority 2012, published 2014).

The structures appear in SMILES notation.

In one data set the test system is patients with PAH. As to the kind of experiment: Long-term follow-up of the two pivotal studies and open-label extension. Format: in vivo, human. Particulars: 2.5, 5 or 10 mg once daily, N=383. The method, then: Long-term Treatment of PAH: In long-term follow-up of patients who were treated with ambrisentan (2.5 mg, 5 mg, or 10 mg once daily) in the two pivotal studies and their open-label extension (N=383), Kaplan-Meier estimates of survival at 1, 2, and 3 years were 93%, 85%, and 79%, respectively. Of the patients who remained on ambrisentan for up to 3 years, the majority received no other treatment for PAH.

The next data set has as its target T1, P-glycoprotein (Pgp) (Homo sapiens, UniProt P08183).
T1 construct: expressed in transfected cells; host or cells: Madin-Darby canine kidney strain II (MDCKII)
In words: Inhibition of Pgp, transfected MDCKII cells. Format: cell-based. Particulars: human, transfected MDCKII cells. As to the method:
(§1) Inhibition constants (IC50) were measured for human bile salt export pump (BSEP), sodium taurocholate cotransporting polypeptide (NTCP), multidrug resistance protein 2 (MRP2), P-glycoprotein (Pgp), breast cancer resistance protein (BCRP), organic anion-transporting polypeptide 1B1 (OATP1B1), and OATP1B3 in transfected cell-lines. Known inhibitors were used as positive controls.

Data set [1] addresses T2, breast cancer resistance protein (BCRP) (Homo sapiens, UniProt Q9UNQ0).
T2 construct: expressed in transfected cells; host or cells: MDCKII
T2 sequence (Q9UNQ0 1-655): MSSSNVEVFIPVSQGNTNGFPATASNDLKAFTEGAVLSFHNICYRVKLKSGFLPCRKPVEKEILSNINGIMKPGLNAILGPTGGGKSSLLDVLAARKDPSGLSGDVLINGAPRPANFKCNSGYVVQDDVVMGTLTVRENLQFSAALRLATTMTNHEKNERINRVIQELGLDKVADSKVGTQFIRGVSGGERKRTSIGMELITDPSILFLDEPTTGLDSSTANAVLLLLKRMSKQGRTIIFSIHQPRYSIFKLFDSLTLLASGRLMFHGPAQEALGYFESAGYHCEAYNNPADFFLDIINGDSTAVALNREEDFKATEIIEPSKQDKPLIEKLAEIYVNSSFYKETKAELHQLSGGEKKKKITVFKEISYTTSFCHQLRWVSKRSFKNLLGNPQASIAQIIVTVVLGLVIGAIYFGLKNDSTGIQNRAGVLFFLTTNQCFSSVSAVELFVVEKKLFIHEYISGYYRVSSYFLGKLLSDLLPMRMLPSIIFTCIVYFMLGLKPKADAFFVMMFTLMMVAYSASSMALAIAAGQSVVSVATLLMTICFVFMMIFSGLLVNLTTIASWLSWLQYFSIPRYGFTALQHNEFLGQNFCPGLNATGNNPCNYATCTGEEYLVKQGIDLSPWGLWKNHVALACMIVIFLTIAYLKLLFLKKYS
As to the kind of experiment: Inhibition of BCRP, transfected MDCKII cells. Format: cell-based. Particulars: human, transfected MDCKII cells. The method, then:
as §1

T1 sequence (P08183 whole entry): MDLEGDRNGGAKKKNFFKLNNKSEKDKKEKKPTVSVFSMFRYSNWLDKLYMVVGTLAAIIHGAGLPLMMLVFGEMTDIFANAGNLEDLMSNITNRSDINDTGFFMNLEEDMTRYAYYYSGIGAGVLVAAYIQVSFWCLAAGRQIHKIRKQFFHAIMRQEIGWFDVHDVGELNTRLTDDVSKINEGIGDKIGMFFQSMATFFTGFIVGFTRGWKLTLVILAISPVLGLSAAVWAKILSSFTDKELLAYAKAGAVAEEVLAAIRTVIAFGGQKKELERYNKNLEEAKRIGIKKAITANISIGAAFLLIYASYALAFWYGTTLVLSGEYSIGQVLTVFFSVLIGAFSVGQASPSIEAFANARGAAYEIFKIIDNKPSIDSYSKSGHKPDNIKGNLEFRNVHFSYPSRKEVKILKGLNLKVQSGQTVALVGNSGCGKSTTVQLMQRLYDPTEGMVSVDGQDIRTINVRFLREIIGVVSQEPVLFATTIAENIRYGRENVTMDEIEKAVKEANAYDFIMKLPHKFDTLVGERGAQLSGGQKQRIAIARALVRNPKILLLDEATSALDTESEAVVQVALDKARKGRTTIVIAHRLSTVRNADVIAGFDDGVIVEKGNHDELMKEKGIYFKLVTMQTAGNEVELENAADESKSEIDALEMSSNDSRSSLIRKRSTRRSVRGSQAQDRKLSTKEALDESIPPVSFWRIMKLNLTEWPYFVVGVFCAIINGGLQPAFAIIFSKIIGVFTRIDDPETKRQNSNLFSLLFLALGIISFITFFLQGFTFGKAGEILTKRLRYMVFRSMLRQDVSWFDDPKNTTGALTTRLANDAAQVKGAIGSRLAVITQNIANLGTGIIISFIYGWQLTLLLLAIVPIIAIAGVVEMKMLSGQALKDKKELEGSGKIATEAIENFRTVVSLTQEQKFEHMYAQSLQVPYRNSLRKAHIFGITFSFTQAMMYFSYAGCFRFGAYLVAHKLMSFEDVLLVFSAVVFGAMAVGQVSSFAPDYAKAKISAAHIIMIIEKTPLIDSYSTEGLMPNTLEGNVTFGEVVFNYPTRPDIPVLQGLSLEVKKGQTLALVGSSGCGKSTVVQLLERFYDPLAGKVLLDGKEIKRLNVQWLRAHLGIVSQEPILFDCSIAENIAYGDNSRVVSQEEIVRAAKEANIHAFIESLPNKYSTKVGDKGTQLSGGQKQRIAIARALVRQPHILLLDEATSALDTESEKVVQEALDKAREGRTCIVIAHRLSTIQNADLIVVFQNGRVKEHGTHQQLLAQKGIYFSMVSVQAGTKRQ

On to `COC(c1ccccc1)(c1ccccc1)[C@H](Oc1nc(C)cc(C)n1)C(=O)O` [Ambrisentan, (25)-2-[(4,6-dimethylpyrimidin-2-yl)oxy]-3-methoxy-3,3-diphenylpropanoic acid], for which the figures for the “Kaplan-Meier estimate of survival” value in the data set with patients with PAH (at 1 year), in the data set on patients with PAH (at 2 years) and in the data set with patients with PAH (at 3 years) were 93%, 85% and 79%, respectively.

Broadly, the IC50 is the concentration that gives 50% inhibition. Low values mean greater potency, high ones weaker potency. On to `COc1ccccc1Oc1c(NS(=O)(=O)c2ccc(C(C)(C)C)cc2)nc(-c2ncccn2)nc1OCCO` [Bosentan], for which the IC50 (against P-glycoprotein (Pgp); in data set [1]) was greater than 100 µM each time.
